These results are taken from ChEMBL document CHEMBL2417430, “A synthetic approach to novel carvotacetone and antheminone analogues with anti-tumour activity” (Bioorg Med Chem Lett, 2013).

One test relates to A549. The test is described as follows: Cytotoxicity against human A549 cells after 4 days by MTT assay. The class given is functional, cell-based. The following applies: A549, 96 h.
In the next test the test system is MCF-10A. The test is described as follows: Cytotoxicity against human MCF10A cells after 4 days by MTT assay. The class given is cell-based. The following applies: 96 h.

Compound `C/C=C/C(=O)OCC1=C[C@H](O)[C@@H](C(C)C)CC1=O` came in with a half-maximal inhibitory concentration (IC50) in the test with A549 of 14 µM.

Consider `C/C=C/C(=O)OCC1=C[C@H](O)[C@H](c2ccccc2)CC1=O`, for which the IC50 with A549 amounted to 8 µM.

In the test on A549, `CC(C)[C@H]1CC(=O)C(CO)=C[C@@H]1O` came in with an IC50 of 159 µM.

Regarding `C/C=C/C(=O)OCC1=C[C@H](O)[C@@H]2C[C@@H]2C1=O`, 18.1 µM corresponded to half-maximal inhibition with A549 (IC50).

With `C/C=C/C(=O)OCC1=C[C@@H](O)CCC1=O`, the IC50 with A549 is 16.7 µM.

As for `C/C=C/C(=O)OCC1=C[C@H](O)[C@@H](c2ccccc2)CC1=O`, the figures for the IC50 with A549 and in the test with MCF-10A were 1.3 µM and 1800 nM, respectively.
